target: T1, human SLC6A19 and TMEM27 (Homo sapiens, UniProt Q695T7); test: Radiolabelled (3H) leucine uptake in CHO cells with doxycycline-inducible expression of human SLC6A19 and TMEM27 (Example B-1); format: cell-based; details: CHO cells with doxycycline-inducible expression of human SLC6A19 and TMEM27, read-out: SLC6A19_Radioligand Uptake Assay IC50
T1 construct: expressed in transfected cells
T1 sequence (Q695T7 1-634): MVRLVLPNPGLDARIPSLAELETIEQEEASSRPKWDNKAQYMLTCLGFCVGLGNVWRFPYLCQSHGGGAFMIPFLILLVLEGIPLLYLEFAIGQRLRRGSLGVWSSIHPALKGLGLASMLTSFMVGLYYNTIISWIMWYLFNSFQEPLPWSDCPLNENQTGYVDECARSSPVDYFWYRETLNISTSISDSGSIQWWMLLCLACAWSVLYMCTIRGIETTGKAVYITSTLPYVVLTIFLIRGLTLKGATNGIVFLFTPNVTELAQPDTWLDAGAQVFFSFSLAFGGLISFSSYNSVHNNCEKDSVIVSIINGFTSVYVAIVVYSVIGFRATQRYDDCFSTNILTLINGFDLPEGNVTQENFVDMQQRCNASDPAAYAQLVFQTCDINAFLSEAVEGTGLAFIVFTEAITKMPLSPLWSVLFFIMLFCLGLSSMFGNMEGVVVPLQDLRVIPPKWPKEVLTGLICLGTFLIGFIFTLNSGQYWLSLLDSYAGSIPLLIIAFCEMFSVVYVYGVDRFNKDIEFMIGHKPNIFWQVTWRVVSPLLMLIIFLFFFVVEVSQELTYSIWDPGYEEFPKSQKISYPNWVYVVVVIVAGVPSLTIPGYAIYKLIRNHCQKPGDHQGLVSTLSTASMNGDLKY
T1 sequence (Q9HBJ8 15-222 partner): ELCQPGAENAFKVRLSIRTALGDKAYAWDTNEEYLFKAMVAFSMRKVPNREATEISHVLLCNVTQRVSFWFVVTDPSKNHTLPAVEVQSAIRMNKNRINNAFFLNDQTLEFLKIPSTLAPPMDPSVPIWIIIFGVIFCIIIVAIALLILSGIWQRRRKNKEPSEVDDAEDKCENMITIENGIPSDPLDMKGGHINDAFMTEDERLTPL
Method in brief: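 CHO cells were induced with doxycycline for 18 h at 37 °C, washed in HBSS, then exposed to compounds for 1 h: 8-point, 3-fold dilutions in duplicate, 0.5% DMSO final. Uptake measured by scintillation counting after 2 h shaking. Activity normalized with positive control as 0% and DMSO as 100%.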

Structure (SMILES) | IC50 [nM]
CC1CN(C(=O)NCc2cc3cc(Cl)c(OCc4cscn4)cc3[nH]2)C1 [Compound 80, N-((5-chloro-6-(thiazol-4-ylmethoxy)-1H-indol-2-yl)methyl)-3-methylazetidine-1-carboxamide] | 350
CC1(C(=O)NCc2cc3cc(Cl)c(OCc4ccccc4O)cc3[nH]2)CC1 [Compound 203, N-((5-chloro-6-((2-hydroxybenzyl)oxy)-1H-indol-2-yl)methyl)-1-methylcyclopropane-1-carboxamide] | 1090
COCC1(C(=O)NCc2cc3cc(Cl)c(OCc4cscn4)cc3[nH]2)CC1 [Compound 279, N-((5-chloro-6-(thiazol-4-ylmethoxy)-1H-indol-2-yl)methyl)-1-(methoxymethyl)cyclopropane-1-carboxamide] | 383
CO[C@@H](C)C(=O)NCc1cc2cc(Cl)c(OCc3cc(C)no3)cc2[nH]1 [Compound 313, (S)-N-((5-chloro-6-((3-methylisoxazol-5-yl)methoxy)-1H-indol-2-yl)methyl)-2-methoxypropanamide] | 125
Cc1cc(COc2cc3[nH]c(CNC(=O)[C@H](C)O)cc3cc2Cl)on1 [Compound 284, (S)-N-((5-chloro-6-((3-methylisoxazol-5-yl)methoxy)-1H-indol-2-yl)methyl)-2-hydroxypropanamide] | 172
CNC(=O)NCc1cc2cc(F)c(OCc3cc(C)no3)cc2[nH]1 [Compound 210, 1-((5-fluoro-6-((3-methylisoxazol-5-yl)methoxy)-1H-indol-2-yl)methyl)-3-methylurea] | 293
O=C(NCc1cc2ccc(OCc3ccon3)cc2[nH]1)N1CCOCC1 [Compound 199, N-((6-(isoxazol-3-ylmethoxy)-1H-indol-2-yl)methyl)morpholine-4-carboxamide] | 1370
O=C(NCc1cc2cc(Cl)c(OCc3ccon3)cc2[nH]1)N1CCCCC1 [Compound 85, N-((5-chloro-6-(isoxazol-3-ylmethoxy)-1H-indol-2-yl)methyl)piperidine-1-carboxamide] | 402
CSc1cc2cc(CNC(=O)C3(C)CC3)[nH]c2cc1OCc1cscn1 [Compound 348, 1-methyl-N-((5-(methylthio)-6-(thiazol-4-ylmethoxy)-1H-indol-2-yl)methyl)cyclopropane-1-carboxamide] | 516
Cc1cc(COc2cc3[nH]c(CNC(=O)C(O)C4CC4)cc3cc2Cl)on1 (centres unmarked) [Compound 238, N-((5-chloro-6-((3-methylisoxazol-5-yl)methoxy)-1H-indol-2-yl)methyl)-2-cyclopropyl-2-hydroxyacetamide] | 1450
CO[C@H]1C[C@@H](Oc2cc3[nH]c(CNC(C)=O)cc3cc2Cl)C1 [Compound 463, N-((5-chloro-6-((cis)-3-methoxycyclobutoxy)-1H-indol-2-yl)methyl)acetamide] | > 8730
Cc1cc(COc2cc3[nH]c(CNC(=O)C(C)(C)O)cc3cc2Cl)on1 [Compound 249, N-((5-chloro-6-((3-methylisoxazol-5-yl)methoxy)-1H-indol-2-yl)methyl)-2-hydroxy-2-methylpropanamide] | 545
CC1CCN(C(=O)NCc2cc3cc(Cl)c(OCc4ccon4)cc3[nH]2)C1 (centres unmarked) [Compound 87, N-((5-chloro-6-(isoxazol-3-ylmethoxy)-1H-indol-2-yl)methyl)-3-methylpyrrolidine-1-carboxamide] | 365
CC(=O)NCc1cc2cc(Cl)c(OCc3ccon3)cc2[nH]1 [Compound 143, N-((5-chloro-6-(isoxazol-3-ylmethoxy)-1H-indol-2-yl)methyl)acetamide] | 182
Cc1cc(COc2cc3[nH]c(CNC(=O)C4(CO)CC4)cc3cc2Cl)on1 [Compound 250, N-((5-chloro-6-((3-methylisoxazol-5-yl)methoxy)-1H-indol-2-yl)methyl)-1-(hydroxymethyl)cyclopropane-1-carboxamide] | 383

Other lines, results leading:

IC50 [nM] | Structure (SMILES)
221 | Cc1cc(COc2cc3[nH]c(CNC(=O)C(C)C#N)cc3cc2Cl)on1 (single isomer, unassigned) [Compound 446, (R or S)-N-((5-chloro-6-((3-methylisoxazol-5-yl)methoxy)-1H-indol-2-yl)methyl)-2-cyanopropanamide]
> 7970 | Cc1cc(COc2cc3[nH]c(CNC(=O)Cn4cccn4)cc3cc2Cl)on1 [Compound 521, N-((5-chloro-6-((3-methylisoxazol-5-yl)methoxy)-1H-indol-2-yl)methyl)-2-(1H-pyrazol-1-yl)acetamide]
2140 | CC(NC(=O)C1(C)CC1)c1cc2cc(Cl)c(OCc3ccon3)cc2[nH]1 (racemic) [Compound 395, (S)-N-(1-(5-chloro-6-(isoxazol-3-ylmethoxy)-1H-indol-2-yl)ethyl)-1-methylcyclopropane-1-carboxamide and (R)-N-(1-(5-chloro-6-(isoxazol-3-ylmethoxy)-1H-indol-2-yl)ethyl)-1-methylcyclopropane-1-carboxamide]
7510 | Cc1cc(COc2cc3[nH]c(CNC(=O)[C@H]4CCCN4)cc3cc2Cl)on1 [Compound 618, (R)—N-((5-chloro-6-((3-methylisoxazol-5-yl)methoxy)-1H-indol-2-yl)methyl)pyrrolidine-2-carboxamide]
> 5280 | CC1(C(=O)NCc2cc3ccc(OCc4cc(C(F)(F)F)on4)cc3[nH]2)CC1 [Compound 354, 1-methyl-N-((6-((5-(trifluoromethyl)isoxazol-3-yl)methoxy)-1H-indol-2-yl)methyl)cyclopropane-1-carboxamide]
539 | CC1(C(=O)NCc2cc3cc(C(F)F)c(OCc4ccon4)cc3[nH]2)CC1 [Compound 646, N-((5-(difluoromethyl)-6-(isoxazol-3-ylmethoxy)-1H-indol-2-yl)methyl)-1-methylcyclopropane-1-carboxamide]
787 | COC(C)COc1cc2[nH]c(CNC(=O)C3(C)CC3)cc2cc1Cl (centres unmarked) [Compound 454, N-((5-chloro-6-(2-methoxypropoxy)-1H-indol-2-yl)methyl)-1-methylcyclopropane-1-carboxamide]
123 | O=C(NCc1cc2cc(Cl)c(OCc3cscn3)cc2[nH]1)[C@@H]1C[C@@H]1F [Compound 542, (1S,2S)-N-((5-chloro-6-(thiazol-4-ylmethoxy)-1H-indol-2-yl)methyl)-2-fluorocyclopropane-1-carboxamide]
> 7300 | CC1(C(=O)NCc2cc3cc(C4(F)CC4)c(OCc4ccon4)cc3[nH]2)CC1 [Compound 655, N-((5-(1-fluorocyclopropyl)-6-(isoxazol-3-ylmethoxy)-1H-indol-2-yl)methyl)-1-methylcyclopropane-1-carboxamide]
336 | O=C(NCc1cc2cc(OC(F)(F)F)c(CCc3cscn3)cc2[nH]1)N1CCC1 [Compound 596, N-((6-(2-(thiazol-4-yl)ethyl)-5-(trifluoromethoxy)-1H-indol-2-yl)methyl)azetidine-1-carboxamide]
590 | CC1(C(=O)NCc2cc3cc(C4CC4(F)F)c(OCc4ccon4)cc3[nH]2)CC1 (racemic) [Compound 658, N-((5-(2,2-difluorocyclopropyl)-6-(isoxazol-3-ylmethoxy)-1H-indol-2-yl)methyl)-1-methylcyclopropane-1-carboxamide]
532 | CC(C)OC(=O)NCc1cc2cc(Cl)c(OCc3cscn3)cc2[nH]1 [Compound 623, isopropyl ((5-chloro-6-(thiazol-4-ylmethoxy)-1H-indol-2-yl)methyl)carbamate]
765 | CN(Cc1cn[nH]c1)C(=O)NCc1cc2cc(Cl)c(OCc3cscn3)cc2[nH]1 [Compound 626, 1-((1H-pyrazol-4-yl)methyl)-3-((5-chloro-6-(thiazol-4-ylmethoxy)-1H-indol-2-yl)methyl)-1-methylurea]
1440 | Cc1cc(COc2cc3[nH]c(CNC(=O)[C@@H]4CCCN4C)cc3cc2Cl)on1 [Compound 577, (S)-N-((5-chloro-6-((3-methylisoxazol-5-yl)methoxy)-1H-indol-2-yl)methyl)-1-methylpyrrolidine-2-carboxamide]
3520 | Cc1cc(COc2cc3[nH]c(CNC(=O)CN)cc3cc2Cl)on1 [Compound 617, 2-amino-N-((5-chloro-6-((3-methylisoxazol-5-yl)methoxy)-1H-indol-2-yl)methyl)acetamide]
387 | O=C(NCc1cc2cc(C3CC3)c(OCc3ccon3)cc2[nH]1)N1CCC1 [Compound 653, N-((5-cyclopropyl-6-(isoxazol-3-ylmethoxy)-1H-indol-2-yl)methyl)azetidine-1-carboxamide]
1070 | CN(Cc1cn[nH]c1)C(=O)NCc1cc2cc(Cl)c(OCc3ccon3)cc2[nH]1 [Compound 629, 1-((1H-pyrazol-4-yl)methyl)-3-((5-chloro-6-(isoxazol-3-ylmethoxy)-1H-indol-2-yl)methyl)-1-methylurea]
